Experimental data: patent US20230382915A1, “GCN2 AND PERK KINASE INHIBITORS AND METHODS OF USE THEREOF” (Deciphera Pharmaceuticals, LLC, priority 2021, published 2023)

What was measured:
[1] = test system: ATF4 in thapsigargin stimulated CCRF-CEM cells (PERK); assay: CCRF-CEM thapsigargin (TG) ATF4 ELISA; type: cell-based; conditions: Homo sapiens, 1 μM thapsigargin
Experimental: CCRF-CEM leukemia cells (catalog #CCL-116) were obtained from the American Type Culture Collection (ATTC, Manassas, VA). Briefly, cells were grown in RPMI-1640 medium supplemented with 10% heat-inactivated fetal bovine serum (Invitrogen, Carlsbad, CA) and 1% Penicillin/Streptomycin/L-Glutamine at 37° C., 5% CO2, and 95% humidity. Cells were expanded until reaching one million cells per mL at which time they were subcultured or harvested for assay use. One million five hundred thousand cells per well in 1 mL complete growth medium were dispensed into 12-well plates and incubated overnight. A serial dilution of test compound was added and cells were incubated at 37° C., 5% CO2, and 95% for three hours, then 1 μM thapsigargin was added and cells were incubated for an additional hour at 37° C., 5% CO2, and 95%. Cells were lysed then ATF4 levels were measured using an ELISA assay (Proteintech, Rosemont, IL). Absorbance was measured at 450 nm and 544 nM using a Synergy2 or equivalent reader (Biotek, Winooski VT). Data was analyzed using PRISM software (Graphpad, San Diego, CA) to calculate IC50 values.

CCRF-CEM leukemia cells = assay: CCRF-CEM ASNase cell proliferation assay; type: cell-based; conditions: Homo sapiens, 1 mU/mL ASNase, 72 h
Experimental: CCRF-CEM leukemia cells (catalog #CCL-116) were obtained from the American Type Culture Collect (ATTC, Manassas, VA). Cells were grown in RPMI-1640 medium supplemented with 10% heat-inactivated fetal bovine serum (Invitrogen, Carlsbad, CA) and 1% Penicillin/Streptomycin/L-Glutamine at 37° C., 5% CO2, and 95% humidity. Cells were expanded until reaching one million cells per mL at which time they are subcultured or harvested for assay use. Ten thousand cells per well in 200 μL RPMI-1640 supplemented with 10% heat-inactivated fetal bovine serum and 1% Penicillin/Streptomycin were dispensed into a 96-well black clear bottom plate. A serial dilution of test compound and 1 mU/mL ASNase was added in triplicate and plates were incubated for 72 h at 37° C., 5% CO2, and 95% humidity. At the end of the incubation, 40 μL of a […] solution of resazurin (Sigma, St. Louis, MO) in PBS was added to each well of the plate and plates were incubated for an additional 6 h at 37° C., 5% CO2, and 95% humidity. Plates were read on a Synergy2 or equivalent reader (Biotek, Winooski VT) using an excitation of 540 nm and an emission of 600 nm. Data was analyzed using GraphPad Prism software (GraphPad, San Diego, CA) to calculate IC50 values.

GCN2 kinase = GCN2 kinase (Homo sapiens (Human), UniProt Q9P2K8); assay: Biochemical assay for GCN2 (TR-FRET kinase activity); conditions: 1 mM ATP
Sequence of GCN2 kinase (Q9P2K8 whole entry): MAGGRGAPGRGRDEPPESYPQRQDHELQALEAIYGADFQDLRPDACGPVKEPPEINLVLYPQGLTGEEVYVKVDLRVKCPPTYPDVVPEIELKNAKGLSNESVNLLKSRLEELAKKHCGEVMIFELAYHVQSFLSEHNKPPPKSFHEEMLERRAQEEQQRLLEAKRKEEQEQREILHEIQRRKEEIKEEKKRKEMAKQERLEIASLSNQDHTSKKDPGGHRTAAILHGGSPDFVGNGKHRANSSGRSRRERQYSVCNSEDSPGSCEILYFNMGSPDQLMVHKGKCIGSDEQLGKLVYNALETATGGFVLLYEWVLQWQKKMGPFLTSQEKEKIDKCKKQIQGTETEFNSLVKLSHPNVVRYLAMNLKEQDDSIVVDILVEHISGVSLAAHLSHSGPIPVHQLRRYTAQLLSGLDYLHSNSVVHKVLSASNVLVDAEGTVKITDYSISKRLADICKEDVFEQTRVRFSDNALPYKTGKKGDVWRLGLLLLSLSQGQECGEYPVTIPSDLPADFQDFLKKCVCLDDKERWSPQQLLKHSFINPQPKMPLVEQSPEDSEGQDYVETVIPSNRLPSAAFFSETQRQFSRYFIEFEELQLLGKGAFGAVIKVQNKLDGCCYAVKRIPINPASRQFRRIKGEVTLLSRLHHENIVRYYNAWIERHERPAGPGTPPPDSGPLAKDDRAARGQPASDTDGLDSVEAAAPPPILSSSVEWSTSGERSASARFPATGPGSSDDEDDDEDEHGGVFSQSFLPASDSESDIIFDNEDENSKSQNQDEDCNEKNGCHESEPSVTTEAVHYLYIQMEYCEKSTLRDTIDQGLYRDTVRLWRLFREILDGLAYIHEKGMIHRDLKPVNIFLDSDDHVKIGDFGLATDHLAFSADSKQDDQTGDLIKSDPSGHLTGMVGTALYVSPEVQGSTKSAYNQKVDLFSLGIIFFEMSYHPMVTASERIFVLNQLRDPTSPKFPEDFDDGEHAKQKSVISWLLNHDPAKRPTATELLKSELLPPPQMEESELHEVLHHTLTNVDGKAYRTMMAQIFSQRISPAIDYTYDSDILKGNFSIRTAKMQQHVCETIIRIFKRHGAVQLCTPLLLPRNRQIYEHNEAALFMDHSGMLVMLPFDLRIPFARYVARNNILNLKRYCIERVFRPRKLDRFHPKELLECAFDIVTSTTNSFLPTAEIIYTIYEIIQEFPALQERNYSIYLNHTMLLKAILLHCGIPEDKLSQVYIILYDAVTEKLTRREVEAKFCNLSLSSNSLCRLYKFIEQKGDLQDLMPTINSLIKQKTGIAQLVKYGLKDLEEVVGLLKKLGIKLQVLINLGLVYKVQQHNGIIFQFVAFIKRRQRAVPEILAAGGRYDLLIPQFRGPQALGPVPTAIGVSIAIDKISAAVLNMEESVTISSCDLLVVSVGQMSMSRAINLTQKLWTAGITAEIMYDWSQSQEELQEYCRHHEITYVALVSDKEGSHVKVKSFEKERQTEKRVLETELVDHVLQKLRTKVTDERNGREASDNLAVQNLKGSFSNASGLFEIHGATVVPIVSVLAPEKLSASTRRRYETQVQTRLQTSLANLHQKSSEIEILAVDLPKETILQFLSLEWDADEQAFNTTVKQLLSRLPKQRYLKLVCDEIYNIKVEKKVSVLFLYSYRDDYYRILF
Experimental: Activity of GCN2 kinase was determined using a TR-FRET kinase activity assay (e.g. Riddle et al. Analytical Biochemistry (2006) 356(1) 108-116). Assays were conducted in 384-well plates (13 μL assay volume) using 2 nM GCN2 (Carna Biosciences), 130 nM GFP-EIf2α (Invitrogen), 0.2 mg/mL E. coli tRNA (sigma) and 1 mM ATP in kinase buffer (Invitrogen). Inhibition of GCN2 was measured by adding serial diluted test compound (final assay concentration of 0.5% DMSO) followed by a 3-hour incubation. Tb-peIF2α (pSer52) antibody (Invitrogen) (2 nM final assay concentration) in kinase buffer containing EDTA (final assay concentration of 20 mM) was added. After a 60 min incubation at room temperature, TR-FRET was monitored using an excitation wavelength of 340 nm and emission wavelengths of 490 nm and 520 nm. The emission ratio (520/490) at each compound concentration of was converted to percent inhibition using controls (i.e., reaction with no test compound and reaction with a known inhibitor) and IC50 values were calculated by fitting a four-parameter sigmoidal curve to the data using Prism (GraphPad software).

PERK enzyme = PERK enzyme (Homo sapiens (Human), UniProt Q9NZJ5); assay: Biochemical assay for PERK (coupled pyruvate kinase/lactate dehydrogenase); conditions: 1 mM ATP
Sequence of PERK enzyme (Q9NZJ5 other isoform, or with tags, fused parts or gaps): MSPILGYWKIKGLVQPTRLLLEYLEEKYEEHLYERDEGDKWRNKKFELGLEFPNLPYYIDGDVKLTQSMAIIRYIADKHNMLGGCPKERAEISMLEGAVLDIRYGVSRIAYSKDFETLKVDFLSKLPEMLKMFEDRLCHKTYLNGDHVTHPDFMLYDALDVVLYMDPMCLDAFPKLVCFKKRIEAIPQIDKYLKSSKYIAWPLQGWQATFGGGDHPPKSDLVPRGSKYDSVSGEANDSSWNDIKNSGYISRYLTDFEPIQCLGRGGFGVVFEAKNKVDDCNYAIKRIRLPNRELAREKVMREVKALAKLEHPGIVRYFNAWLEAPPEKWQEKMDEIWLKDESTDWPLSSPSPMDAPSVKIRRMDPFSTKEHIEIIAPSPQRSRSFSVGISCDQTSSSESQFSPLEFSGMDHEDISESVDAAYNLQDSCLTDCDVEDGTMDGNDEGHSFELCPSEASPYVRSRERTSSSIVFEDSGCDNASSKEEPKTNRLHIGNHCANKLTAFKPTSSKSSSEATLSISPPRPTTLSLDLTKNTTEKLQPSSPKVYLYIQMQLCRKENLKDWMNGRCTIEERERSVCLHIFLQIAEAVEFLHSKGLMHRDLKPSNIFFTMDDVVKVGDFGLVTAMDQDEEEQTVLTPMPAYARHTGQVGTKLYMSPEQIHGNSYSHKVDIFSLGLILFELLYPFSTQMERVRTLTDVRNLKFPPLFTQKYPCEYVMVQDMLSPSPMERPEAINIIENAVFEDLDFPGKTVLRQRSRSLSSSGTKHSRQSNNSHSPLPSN
Experimental: Activity of PERK kinase was determined spectroscopically using a coupled pyruvate kinase/lactate dehydrogenase assay that continuously monitors the ATP hydrolysis-dependent oxidation of NADH (e.g., Schindler et al. Science (2000) 289: 1938-1942). Assays were conducted in 384-well plates ([…] final volume) using 10 nM PERK (from Beryllium), 0.25 mg/mL Myelin Basic Protein substrate, 1.5 units pyruvate kinase, 2.1 units lactate dehydrogenase, 1 mM phosphoenol pyruvate, 0.28 mM NADH and 1 mM ATP in assay buffer (100 mM Tris, pH 7.5, 15 mM MgCl2, 0.5 mM DTT, 0.004% (w/v) BSA, and 0.004% Triton X-100). Inhibition of PERK was measured by adding serial diluted test compound (final assay concentration of 1% DMSO). A decrease in absorption at 340 nm was monitored continuously for 6 hours at 30° C. on a multi-mode microplate reader (BioTek). The reaction rate was calculated using the 2-3 h time frame. The reaction rate at each concentration of compound was converted to percent inhibition using controls (i.e., reaction with no test compound and reaction with a known inhibitor) and IC50 values were calculated using software routines in Prism (GraphPad software).

[2] = test system: ATF4 in H929 multiple myeloma cells; assay: H929 ATF4 ELISA assay; type: cell-based; conditions: four hours, relative to vehicle treated control
Experimental: H929 multiple myeloma cells (catalog #CRL-9068) were obtained from the American Type Culture Collection (ATTC, Manassas, VA). Briefly, cells were grown in RPMI-1640 medium supplemented with 20% heat-inactivated fetal bovine serum (catalog #A3840002, ThermoFisher Scientific, Waltham, MA), 1% Penicillin/Streptomycin/L-Glutamine (catalog #10378016, ThermoFisher Scientific, Waltham, MA), and 0.05 mM 2-mercaptoethanol (catalog #21985-023, ThermoFisher Scientific, Waltham, MA) at 37° C., 5% CO2, and 95% humidity. Cells were expanded until reaching one million five hundred thousand cells per mL at which time they were sub-cultured or harvested for assay use. One million five hundred thousand cells per well in 1 mL complete growth medium were dispensed into 12-well plates and incubated overnight. A serial dilution of test compound was added, and cells were incubated at 37° C., 5% CO2, and 95% for four hours. Cells were lysed then ATF4 levels were measured using an ELISA assay (Proteintech, Rosemont, IL). Absorbance is measured at 450 nm and 544 nM using a Synergy2 or equivalent reader (Biotek, Winooski VT). Data were analyzed using PRISM software (Graphpad, San Diego, CA) to calculate fold stimulation of cellular ATF4 relative to vehicle treated control.

Row | SMILES | IC50 [1] [nM] | IC50 (CCRF-CEM leukemia cells) [nM] | IC50 (GCN2 kinase) [nM] | IC50 (PERK enzyme) [nM] | H929 NS ATF4 ELISA (ATF4 stim) [2]
1 | CC(=O)OCc1cc(Cl)cc(S(=O)(=O)Nc2cccc(-c3cn(C)c4ncnc(N)c34)c2F)c1Cl [Example 1, 3-(N-(3-(4-amino-7-methyl-7H-pyrrolo[2,3-d]pyrimidin-5-yl)-2-fluorophenyl)sulfamoyl)-2,5-dichlorobenzyl acetate] | 100 to 500 | 100 to 500 | 1000 to 10000 | ≤ 100 | 
2 | COCCn1cc(-c2cccc(NS(=O)(=O)c3cc(Cl)cc(CO)c3Cl)c2F)c2c(N)ncnc21 [Example 4] | ≤ 100 | ≤ 100 | ≤ 100 | ≤ 100 | +++ (an ATF4 stim greater than 10 fold and less than or equal to 20 fold)
3 | Cn1cc(-c2cccc(NS(=O)(=O)c3cccc(CO)c3Cl)c2F)c2c(N)ncnc21 [Example 5] | 100 to 500 | 1000 to 10000 | 1000 to 10000 | ≤ 100 | ++ (an ATF4 stim greater than 5-fold and less than or equal to 10 fold)
4 | Cn1cc(-c2cc(F)cc(NS(=O)(=O)c3cc(Cl)cc(CO)c3Cl)c2)c2c(N)ncnc21 [Example 6] | 100 to 500 | 500 to 1000 | 100 to 500 | ≤ 100 | 
5 | Cn1cc(-c2cc(NS(=O)(=O)c3cc(Cl)cc(CO)c3Cl)cc(F)c2F)c2c(N)ncnc21 [Example 7] | 100 to 500 | 500 to 1000 | 100 to 500 | ≤ 100 | 
6 | Nc1ncnc2c1c(-c1cccc(NS(=O)(=O)c3cc(Cl)cc(CO)c3Cl)c1F)cn2C1CC1 [Example 8] | ≤ 100 | ≤ 100 | ≤ 100 | ≤ 100 | +++ (an ATF4 stim greater than 10 fold and less than or equal to 20 fold)
7 | CC(=O)OCc1cc(Cl)cc(S(=O)(=O)Nc2cccc(-c3cn(C4COC4)c4ncnc(N)c34)c2F)c1Cl [Example 9] | ≤ 100 | 100 to 500 | 1000 to 10000 | ≤ 100 | 
8 | Nc1ncnc2c1c(-c1cccc(NS(=O)(=O)c3cc(Cl)cc(CO)c3Cl)c1F)cn2C1COC1 [Example 10] | ≤ 100 | ≤ 100 | ≤ 100 | ≤ 100 | +++ (an ATF4 stim greater than 10 fold and less than or equal to 20 fold)
9 | Nc1nccc2scc(-c3cccc(NS(=O)(=O)c4cc(Cl)cc(CO)c4Cl)c3F)c12 [Example 11] | 1000 to 10000 | 500 to 1000 | 100 to 500 |  | 
10 | Nc1nccc2occ(-c3cccc(NS(=O)(=O)c4cc(Cl)cc(CO)c4Cl)c3F)c12 [Example 12] | 1000 to 10000 | 1000 to 10000 | 100 to 500 |  | 
11 | CC(C)(C)n1cc(-c2cccc(NS(=O)(=O)c3cc(Cl)cc(CO)c3Cl)c2F)c2c(N)ncnc21 [Example 13] | 100 to 500 | 100 to 500 | 100 to 500 | ≤ 100 | 
12 | Nc1ncnc2c1c(-c1cccc(NS(=O)(=O)c3cc(Cl)cc(CO)c3Cl)c1F)cn2C1CCNCC1 [Example 15] | 500 to 1000 | 100 to 500 | ≤ 100 | ≤ 100 | 
13 | Nc1ncnc2c1c(-c1cccc(NS(=O)(=O)c3cc(Cl)cc(CO)c3Cl)c1F)cn2C1CNC1 [Example 16] | 100 to 500 | 500 to 1000 | ≤ 100 | ≤ 100 | 
14 | CN1CCC(n2cc(-c3cccc(NS(=O)(=O)c4cc(Cl)cc(CO)c4Cl)c3F)c3c(N)ncnc32)CC1 [Example 17] | ≤ 100 | ≤ 100 |  |  | +++ (an ATF4 stim greater than 10 fold and less than or equal to 20 fold)
15 | Cn1cc(-c2cccc(NS(=O)(=O)c3cc(Cl)cc(CO)c3Cl)c2F)c2c(N)nccc21 [Example 18] | 1000 to 10000 | 1000 to 10000 | 1000 to 10000 | ≤ 100 | 
16 | Cn1cc(-c2cccc(NS(=O)(=O)c3cc(F)cc(CO)c3Cl)c2F)c2c(N)ncnc21 [Example 19] | ≤ 100 | 100 to 500 | 100 to 500 | ≤ 100 | 
17 | Cn1cc(-c2cccc(NS(=O)(=O)c3cc(Cl)cc(CO)c3Cl)c2Cl)c2c(N)ncnc21 [Example 20] | 100 to 500 | 100 to 500 | 100 to 500 | ≤ 100 | 
18 | Cn1cc(-c2cccc(NS(=O)(=O)c3cc(Cl)cc(CO)c3F)c2F)c2c(N)ncnc21 [Example 22] | 100 to 500 | 1000 to 10000 | 100 to 500 | ≤ 100 | 
19 | [2H]C([2H])([2H])n1cc(-c2cccc(NS(=O)(=O)c3cc(Cl)cc(CO)c3Cl)c2F)c2c(N)ncnc21 [Example 27] | ≤ 100 | ≤ 100 | ≤ 100 | ≤ 100 | 
20 | COCc1cc(Cl)cc(S(=O)(=O)Nc2cccc(-c3cn(C)c4ncnc(N)c34)c2F)c1Cl [Example 29] | 100 to 500 | 1000 to 10000 | 100 to 500 | ≤ 100 | 
21 | CCC(C)(C)C(=O)OCc1cc(Cl)cc(S(=O)(=O)Nc2cccc(-c3cn(C)c4ncnc(N)c34)c2F)c1Cl [Example 30] | 500 to 1000 | 1000 to 10000 | 1000 to 10000 | 1000 to 10000 | 
22 | Cn1cc(-n2cc(-c3cccc(NS(=O)(=O)c4cc(Cl)cc(CO)c4Cl)c3F)c3c(N)ncnc32)cn1 [Example 31] | ≤ 100 | ≤ 100 | ≤ 100 | ≤ 100 | 
23 | Nc1ncnc2c1c(-c1cccc(NS(=O)(=O)c3cc(Cl)cc(CO)c3Cl)c1F)cn2-c1cn[nH]c1 [Example 32] | 100 to 500 | ≤ 100 | ≤ 100 | ≤ 100 | 
24 | Cn1cc(-c2cccc(NS(=O)(=O)c3cc(Cl)cc(CO)c3Br)c2F)c2c(N)ncnc21 [Example 33] | ≤ 100 | ≤ 100 | ≤ 100 | ≤ 100 | 
